# Data taken from ChEMBL document CHEMBL5465560, “Selectivity Literature for EUbOPEN Chemogenomic Library” (2024).
# Experiments:
# [1] = molecular target: T1, Cyclin-G-associated kinase (Homo sapiens) (UniProt O14976); experiment: Selectivity interaction (KinomeScan (DiscoverX)) EUB0000695a GAK; conditions: at 100 nM
# T1 sequence (whole entry): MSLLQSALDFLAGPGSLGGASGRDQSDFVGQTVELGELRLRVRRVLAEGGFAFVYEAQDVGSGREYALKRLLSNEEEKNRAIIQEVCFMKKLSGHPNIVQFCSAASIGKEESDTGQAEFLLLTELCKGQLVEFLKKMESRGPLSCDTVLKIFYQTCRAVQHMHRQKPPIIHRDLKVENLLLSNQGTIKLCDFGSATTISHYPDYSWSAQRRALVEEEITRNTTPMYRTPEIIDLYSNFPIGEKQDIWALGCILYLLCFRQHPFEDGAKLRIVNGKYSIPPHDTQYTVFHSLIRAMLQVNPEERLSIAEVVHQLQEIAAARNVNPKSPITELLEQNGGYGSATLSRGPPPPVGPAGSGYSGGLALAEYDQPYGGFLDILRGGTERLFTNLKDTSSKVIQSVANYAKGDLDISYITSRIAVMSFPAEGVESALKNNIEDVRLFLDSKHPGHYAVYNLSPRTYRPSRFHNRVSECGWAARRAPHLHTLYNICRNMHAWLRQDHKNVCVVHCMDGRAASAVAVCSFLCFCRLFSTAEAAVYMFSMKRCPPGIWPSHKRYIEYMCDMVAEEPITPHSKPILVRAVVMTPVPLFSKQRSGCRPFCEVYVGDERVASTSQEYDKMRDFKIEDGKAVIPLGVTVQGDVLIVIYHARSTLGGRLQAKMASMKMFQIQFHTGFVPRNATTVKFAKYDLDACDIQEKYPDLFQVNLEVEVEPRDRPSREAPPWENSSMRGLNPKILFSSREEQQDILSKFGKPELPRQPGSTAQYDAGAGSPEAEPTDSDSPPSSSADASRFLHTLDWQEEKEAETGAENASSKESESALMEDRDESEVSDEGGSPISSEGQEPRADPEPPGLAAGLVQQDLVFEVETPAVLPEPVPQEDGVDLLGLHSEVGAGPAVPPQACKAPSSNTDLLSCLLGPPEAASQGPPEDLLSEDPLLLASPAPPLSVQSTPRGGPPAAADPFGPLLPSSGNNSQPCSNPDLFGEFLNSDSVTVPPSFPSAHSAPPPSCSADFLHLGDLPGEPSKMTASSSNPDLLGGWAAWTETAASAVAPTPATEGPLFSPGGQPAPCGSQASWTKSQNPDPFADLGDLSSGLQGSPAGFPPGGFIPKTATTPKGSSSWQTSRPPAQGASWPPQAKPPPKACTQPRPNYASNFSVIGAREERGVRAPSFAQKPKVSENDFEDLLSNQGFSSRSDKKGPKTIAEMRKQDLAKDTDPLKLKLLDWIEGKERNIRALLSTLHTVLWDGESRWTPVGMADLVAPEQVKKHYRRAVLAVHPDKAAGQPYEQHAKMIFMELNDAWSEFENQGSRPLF
# [2] = molecular target: LIM domain kinase 1 (Homo sapiens) (UniProt P53667); experiment: Selectivity interaction (KinomeScan (DiscoverX)) EUB0000666a LIMK1; conditions: at 10 µM
# LIM domain kinase 1 (Homo sapiens), sequence (P53667 whole entry, looked up, the tested form may be a part): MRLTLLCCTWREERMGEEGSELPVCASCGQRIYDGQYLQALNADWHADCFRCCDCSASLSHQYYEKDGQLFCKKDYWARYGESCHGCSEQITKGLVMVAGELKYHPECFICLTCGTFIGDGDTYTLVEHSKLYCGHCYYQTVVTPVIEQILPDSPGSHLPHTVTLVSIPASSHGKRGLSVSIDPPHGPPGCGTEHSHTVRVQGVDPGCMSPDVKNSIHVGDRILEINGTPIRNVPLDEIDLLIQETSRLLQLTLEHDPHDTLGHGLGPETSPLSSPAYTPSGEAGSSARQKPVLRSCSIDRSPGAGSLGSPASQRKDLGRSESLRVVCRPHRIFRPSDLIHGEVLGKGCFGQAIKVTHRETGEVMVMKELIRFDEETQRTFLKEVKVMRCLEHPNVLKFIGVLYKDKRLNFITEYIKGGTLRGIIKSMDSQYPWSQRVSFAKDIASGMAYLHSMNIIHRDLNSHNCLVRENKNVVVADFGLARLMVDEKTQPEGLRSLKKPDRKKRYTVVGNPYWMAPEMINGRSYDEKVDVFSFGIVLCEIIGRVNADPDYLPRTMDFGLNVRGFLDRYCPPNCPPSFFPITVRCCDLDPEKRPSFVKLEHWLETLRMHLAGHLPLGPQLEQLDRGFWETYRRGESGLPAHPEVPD
# [3] = molecular target: Mitogen-activated protein kinase kinase kinase 4 (Homo sapiens) (UniProt Q9Y6R4); experiment: Selectivity interaction (KinomeScan (DiscoverX)) EUB0000666a MAP3K4; conditions: at 10 µM
# Mitogen-activated protein kinase kinase kinase 4 (Homo sapiens), sequence (Q9Y6R4 whole entry): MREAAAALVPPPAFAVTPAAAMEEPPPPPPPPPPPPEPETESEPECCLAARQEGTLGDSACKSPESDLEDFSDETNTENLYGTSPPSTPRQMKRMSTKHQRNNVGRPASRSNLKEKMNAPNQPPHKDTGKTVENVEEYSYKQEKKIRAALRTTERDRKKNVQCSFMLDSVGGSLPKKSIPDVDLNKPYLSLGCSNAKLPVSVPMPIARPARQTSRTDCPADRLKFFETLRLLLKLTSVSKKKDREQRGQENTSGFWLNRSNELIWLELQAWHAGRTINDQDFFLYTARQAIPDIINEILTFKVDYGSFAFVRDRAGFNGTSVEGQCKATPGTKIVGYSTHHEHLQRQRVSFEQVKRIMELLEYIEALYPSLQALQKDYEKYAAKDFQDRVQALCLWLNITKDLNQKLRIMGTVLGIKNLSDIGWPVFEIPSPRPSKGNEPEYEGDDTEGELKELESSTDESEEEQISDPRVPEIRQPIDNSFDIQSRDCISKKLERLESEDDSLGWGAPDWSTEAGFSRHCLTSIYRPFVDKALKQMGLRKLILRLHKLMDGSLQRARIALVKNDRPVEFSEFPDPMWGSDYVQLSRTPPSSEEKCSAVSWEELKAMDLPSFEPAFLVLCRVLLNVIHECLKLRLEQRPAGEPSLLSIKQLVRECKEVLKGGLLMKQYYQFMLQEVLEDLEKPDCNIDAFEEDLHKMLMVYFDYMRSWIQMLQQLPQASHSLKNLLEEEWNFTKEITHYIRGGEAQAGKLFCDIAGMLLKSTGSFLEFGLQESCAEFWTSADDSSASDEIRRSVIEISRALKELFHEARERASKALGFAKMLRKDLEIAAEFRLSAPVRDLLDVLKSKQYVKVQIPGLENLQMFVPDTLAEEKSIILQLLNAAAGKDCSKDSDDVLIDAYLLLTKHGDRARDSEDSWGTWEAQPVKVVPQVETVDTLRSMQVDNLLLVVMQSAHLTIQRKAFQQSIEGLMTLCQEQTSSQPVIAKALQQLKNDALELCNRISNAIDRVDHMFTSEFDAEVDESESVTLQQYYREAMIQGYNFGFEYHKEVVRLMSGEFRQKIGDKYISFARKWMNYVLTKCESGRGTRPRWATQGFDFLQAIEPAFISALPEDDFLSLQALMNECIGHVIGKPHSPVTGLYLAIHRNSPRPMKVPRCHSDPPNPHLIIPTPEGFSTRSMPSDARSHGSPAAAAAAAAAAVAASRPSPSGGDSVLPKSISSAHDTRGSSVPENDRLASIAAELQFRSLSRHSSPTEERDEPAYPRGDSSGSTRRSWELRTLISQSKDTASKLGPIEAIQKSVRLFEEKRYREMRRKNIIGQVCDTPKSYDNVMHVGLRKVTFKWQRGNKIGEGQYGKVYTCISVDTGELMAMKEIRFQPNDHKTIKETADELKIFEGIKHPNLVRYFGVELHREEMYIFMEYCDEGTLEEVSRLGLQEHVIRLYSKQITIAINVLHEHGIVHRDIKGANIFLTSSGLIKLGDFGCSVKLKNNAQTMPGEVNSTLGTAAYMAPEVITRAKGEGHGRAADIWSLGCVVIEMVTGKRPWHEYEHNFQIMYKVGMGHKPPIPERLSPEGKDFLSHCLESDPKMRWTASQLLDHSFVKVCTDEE
# [4] = molecular target: Serine/threonine-protein kinase Nek6 (Homo sapiens) (UniProt Q9HC98); experiment: Selectivity interaction (KinomeScan (DiscoverX)) EUB0000666a NEK6; conditions: at 10 µM
# Serine/threonine-protein kinase Nek6 (Homo sapiens), sequence (Q9HC98 whole entry): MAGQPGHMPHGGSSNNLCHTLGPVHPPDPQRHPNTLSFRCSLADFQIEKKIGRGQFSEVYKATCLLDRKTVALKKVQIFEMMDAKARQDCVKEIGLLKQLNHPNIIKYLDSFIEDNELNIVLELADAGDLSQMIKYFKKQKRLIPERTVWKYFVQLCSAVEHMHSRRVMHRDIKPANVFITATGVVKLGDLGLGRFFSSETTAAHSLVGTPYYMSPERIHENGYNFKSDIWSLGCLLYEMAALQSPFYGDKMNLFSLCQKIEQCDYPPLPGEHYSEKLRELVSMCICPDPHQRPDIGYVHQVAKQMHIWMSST
# [5] = molecular target: T2, Calcium/calmodulin-dependent protein kinase type IV (Homo sapiens) (UniProt Q16566); experiment: Selectivity interaction (KinomeScan (DiscoverX)) EUB0001049a CAMK4; conditions: at 1 µM
# T2 sequence (whole entry): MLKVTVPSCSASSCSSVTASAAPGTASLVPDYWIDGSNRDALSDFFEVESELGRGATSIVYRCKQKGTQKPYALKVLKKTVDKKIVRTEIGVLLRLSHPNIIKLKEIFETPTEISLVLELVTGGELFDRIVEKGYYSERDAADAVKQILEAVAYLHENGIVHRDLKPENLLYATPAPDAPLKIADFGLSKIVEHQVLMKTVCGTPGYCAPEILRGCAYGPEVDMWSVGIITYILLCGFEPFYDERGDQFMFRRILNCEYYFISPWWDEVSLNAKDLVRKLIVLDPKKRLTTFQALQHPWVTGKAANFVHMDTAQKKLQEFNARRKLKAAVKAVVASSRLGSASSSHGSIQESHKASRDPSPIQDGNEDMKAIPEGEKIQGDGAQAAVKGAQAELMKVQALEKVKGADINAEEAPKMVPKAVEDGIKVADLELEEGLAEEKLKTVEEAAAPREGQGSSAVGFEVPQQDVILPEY
# Focal adhesion kinase 1 = Focal adhesion kinase 1 (Homo sapiens, UniProt Q05397)
# Focal adhesion kinase 1, sequence (Q05397 whole entry): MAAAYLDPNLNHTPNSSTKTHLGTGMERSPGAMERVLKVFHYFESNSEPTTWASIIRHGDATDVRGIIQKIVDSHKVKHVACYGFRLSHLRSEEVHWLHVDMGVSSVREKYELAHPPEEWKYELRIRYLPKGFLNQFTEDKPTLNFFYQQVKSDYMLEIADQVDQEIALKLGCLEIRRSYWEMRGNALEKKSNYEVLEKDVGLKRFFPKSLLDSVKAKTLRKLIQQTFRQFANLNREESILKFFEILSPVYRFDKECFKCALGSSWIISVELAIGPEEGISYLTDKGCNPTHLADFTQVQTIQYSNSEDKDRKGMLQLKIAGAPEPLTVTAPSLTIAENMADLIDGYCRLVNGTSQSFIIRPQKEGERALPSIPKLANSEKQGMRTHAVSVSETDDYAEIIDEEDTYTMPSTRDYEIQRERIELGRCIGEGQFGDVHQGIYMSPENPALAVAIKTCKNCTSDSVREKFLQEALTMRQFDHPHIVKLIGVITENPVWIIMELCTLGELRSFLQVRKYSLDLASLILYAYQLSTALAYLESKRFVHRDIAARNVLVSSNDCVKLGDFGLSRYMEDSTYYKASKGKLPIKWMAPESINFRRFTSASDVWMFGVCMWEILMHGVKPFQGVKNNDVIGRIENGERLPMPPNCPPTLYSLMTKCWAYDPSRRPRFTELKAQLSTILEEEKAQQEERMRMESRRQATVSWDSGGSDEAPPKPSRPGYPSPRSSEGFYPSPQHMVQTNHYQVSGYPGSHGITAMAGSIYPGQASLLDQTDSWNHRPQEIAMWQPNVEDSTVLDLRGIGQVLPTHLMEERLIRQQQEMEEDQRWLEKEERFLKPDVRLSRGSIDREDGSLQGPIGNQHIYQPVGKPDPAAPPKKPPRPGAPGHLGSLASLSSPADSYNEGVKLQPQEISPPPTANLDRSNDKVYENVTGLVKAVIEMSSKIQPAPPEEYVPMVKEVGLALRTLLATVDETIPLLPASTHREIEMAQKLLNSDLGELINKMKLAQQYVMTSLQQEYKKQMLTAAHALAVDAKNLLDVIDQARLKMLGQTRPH
# [6] = molecular target: T1, Cyclin-G-associated kinase (Homo sapiens); experiment: Selectivity interaction (KinomeScan (DiscoverX)) EUB0001619a GAK; conditions: at 1 µM
# [7] = molecular target: Death-associated protein kinase 3 (Homo sapiens) (UniProt O43293); experiment: Selectivity interaction (KinomeScan (DiscoverX)) EUB0000618a DAPK3; conditions: at 10 µM
# Death-associated protein kinase 3 (Homo sapiens), sequence (O43293 whole entry, looked up): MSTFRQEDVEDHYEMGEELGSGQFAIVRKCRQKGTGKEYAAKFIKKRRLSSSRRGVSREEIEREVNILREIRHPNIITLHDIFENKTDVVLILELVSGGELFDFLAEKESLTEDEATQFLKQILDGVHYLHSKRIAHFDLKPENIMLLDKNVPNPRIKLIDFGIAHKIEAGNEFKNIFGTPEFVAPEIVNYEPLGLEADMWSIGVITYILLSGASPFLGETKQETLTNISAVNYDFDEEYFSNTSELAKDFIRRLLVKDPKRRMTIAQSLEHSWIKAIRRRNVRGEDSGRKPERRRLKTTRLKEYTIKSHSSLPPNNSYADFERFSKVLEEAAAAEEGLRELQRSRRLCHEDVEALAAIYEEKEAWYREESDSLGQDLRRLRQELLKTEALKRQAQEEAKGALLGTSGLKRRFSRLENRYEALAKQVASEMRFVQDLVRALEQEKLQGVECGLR
# [8] = molecular target: SRSF protein kinase 2 (Homo sapiens) (UniProt P78362); experiment: Selectivity interaction (KinomeScan (DiscoverX)) EUB0000618a SRPK2; conditions: at 10 µM
# SRSF protein kinase 2 (Homo sapiens), sequence (P78362 whole entry, looked up): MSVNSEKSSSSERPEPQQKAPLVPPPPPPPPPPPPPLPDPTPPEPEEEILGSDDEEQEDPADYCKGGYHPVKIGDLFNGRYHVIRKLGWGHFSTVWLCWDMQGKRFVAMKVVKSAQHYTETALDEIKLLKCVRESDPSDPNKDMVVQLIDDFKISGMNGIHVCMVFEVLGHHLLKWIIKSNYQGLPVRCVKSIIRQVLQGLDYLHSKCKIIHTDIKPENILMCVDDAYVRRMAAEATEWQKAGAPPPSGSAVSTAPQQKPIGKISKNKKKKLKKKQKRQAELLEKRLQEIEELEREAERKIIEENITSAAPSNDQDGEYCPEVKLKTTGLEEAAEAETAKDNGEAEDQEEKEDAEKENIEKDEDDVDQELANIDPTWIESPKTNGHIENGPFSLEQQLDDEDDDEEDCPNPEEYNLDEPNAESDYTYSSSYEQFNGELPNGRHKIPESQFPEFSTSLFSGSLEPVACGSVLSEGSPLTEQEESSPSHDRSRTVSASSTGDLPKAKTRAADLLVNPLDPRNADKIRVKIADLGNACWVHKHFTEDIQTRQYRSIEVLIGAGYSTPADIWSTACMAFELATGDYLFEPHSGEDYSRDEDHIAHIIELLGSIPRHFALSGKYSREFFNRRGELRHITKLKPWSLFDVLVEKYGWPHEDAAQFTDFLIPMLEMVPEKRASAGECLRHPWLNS
# [9] = molecular target: T3, Serine/threonine-protein kinase STK11 (Homo sapiens) (UniProt Q15831); experiment: Selectivity interaction (KinomeScan (DiscoverX)) EUB0000092b STK11; conditions: at 10 µM
# T3 sequence (whole entry): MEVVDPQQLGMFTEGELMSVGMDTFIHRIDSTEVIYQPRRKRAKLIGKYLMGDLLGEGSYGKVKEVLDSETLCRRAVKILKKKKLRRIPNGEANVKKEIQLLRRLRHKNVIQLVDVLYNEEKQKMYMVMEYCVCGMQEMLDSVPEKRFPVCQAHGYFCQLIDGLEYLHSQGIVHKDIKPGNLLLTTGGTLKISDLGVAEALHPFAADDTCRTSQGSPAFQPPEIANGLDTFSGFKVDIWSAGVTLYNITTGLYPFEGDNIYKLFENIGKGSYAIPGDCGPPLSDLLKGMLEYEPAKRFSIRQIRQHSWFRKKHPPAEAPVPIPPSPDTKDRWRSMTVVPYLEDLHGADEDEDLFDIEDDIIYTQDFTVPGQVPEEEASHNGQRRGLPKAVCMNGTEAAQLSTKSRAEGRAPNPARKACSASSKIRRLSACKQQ
compound,measurement,setting,value
Cc1cc(F)c(C(=O)Nc2cccc(-c3nncn3C(C)C)n2)cc1-n1cnc(C2CC2)c1,% of control,[1],88%
O=C(NOC[C@H](O)CO)c1ccc(F)c(F)c1Nc1ccc(I)cc1F,% of control,[2],68%
same,% of control,[3],100%
same,% of control,[4],100%
COc1cc(Nc2nc(C)cc(-c3cnn4nc(OC)ccc34)n2)cc(C(F)(F)F)c1,% of control,[5],100%
CCc1cccc(CC)c1NC(=O)c1nn(C)c2c1CCc1cnc(Nc3ccc(C(=O)NC4CCN(C)CC4)cc3OC(F)(F)F)nc1-2,IC50,Focal adhesion kinase 1,> 10 µM
N#Cc1cccc(-c2c[nH]c3ncnc(N4CCOCC4)c23)c1,% of control,[6],100%
O[C@H]1CC[C@H](Nc2ncc3nc(Nc4c(F)cc(F)cc4F)n([C@H]4CCOC4)c3n2)CC1,% of control,[7],100%
same,% of control,[8],100%
CCC(=O)N1CCN(c2ccc(-n3c(=O)ccc4cnc5ccc(-c6cnc7ccccc7c6)cc5c43)cc2C(F)(F)F)CC1,% of control,[9],100%
